Test results reported in US5977119A, “Trisubstituted thioxanthines” (Euro-Celtique, S.A., priority 1997, dated 1999).
Each block holds one compound with its values, some of them ahead of it.

Key:
[1] = test system: bronchial and coronary dilation; details: in words; cited from earlier work
[2] = test system: Type IV PDE isolated from bovine tracheal smooth muscle (PDE IV); test: Type IV PDE activity (hydrolysis of [^3 H]-cyclic AMP); type: biochemical; details: cyclic AMP 0.2 mM, 2.5% dimethyl sulfoxide, * = disubstituted analog
Excerpt: In addition, the PDE IV inhibitory compounds of the present invention may be examined for their PDE IV inhibitory effects via the techniques set forth in the following examples, wherein the ability of the compounds to inhibit PDE IV isolated from bovine tracheal smooth muscle is set forth.
The Type IV PDE is isolated from bovine tracheal smooth muscle using a procedure similar to that previously described by Silver, P. J. et al., Eur. J. Pharmacol. 150:85,1988.(1). Briefly, smooth muscle from bovine trachea is minced and homogenized using a polytron in 10 volumes of an extraction buffer containing 10 mM Tris-acetate (pH 7.5), 2 mM magnesium chloride, 1 mM dithiothreitol and 2,000 units/ml of aprotinin. This and all subsequent procedures are performed at 0-4° C. The homogenate is sonicated and then centrifuged at 48,000×g for 30 minutes. The resulting supernatant is applied to a DEAE Trisacryl M column previously equilibrated with sodium acetate and dithiothreitol. After applications of the sample, the column is washed with sodium acetate/ dithiothreitol, after which the different forms of PDE are eluted from the column using a linear Tris-HCl/NaCl gradient. Fractions containing Type IV PDE are collected, dialyzed and concentrated to 14% of the original volume. The concentrated fractions are diluted to 50% with ethylene glycol and stored at -20° C.
Enzyme activity is assessed by measuring the hydrolysis of [^3 H]-cyclic AMP, as described by Thompson, W. J. et al., Adv. Cyclic Nucleotide Res. 10:69, 1979. The cyclic AMP concentration used in this assay is 0.2 mM, which approximates the Km value. Protein concentration is adjusted to ensure that no more than 15% of the available substrate is hydrolyzed during the incubation period.
All test compounds are dissolved in dimethyl sulfoxide (final concentration of 2.5%). This concentration of dimethyl sulfoxide inhibits enzyme activity by approximately 10%.

[3] = test system: neutrophils and eosinophils; details: in-vitro, in words; cited from earlier work
[4] = test system: mast cells, basophils, monocytes and eosinophils; details: in-vitro, in words; cited from earlier work
lymphocytes = details: in-vitro, in words; cited from earlier work
PDE IV = details: in words, background; cited from earlier work
[5] = in words; cited from earlier work
PDE III = details: in words, background; cited from earlier work

- IC50 [2]: 1 µM
SMILES: CCn1c(=O)n(C)c(=S)c2[nH]c(C(C)C)nc21 [3-ethyl-1-methyl-8-isopropyl-6-thioxanthine]

- IC50 [2]: 18.4 µM
SMILES: CCCn1c(=O)[nH]c(=S)c2[nH]c(CC)nc21 [3-propyl-8-ethyl-6-thioxanthine]

- IC50 [2]: 3.83 µM
SMILES: CCC(C)Cn1c(=O)[nH]c(=S)c2[nH]c(C3CC3)nc21 (stereo not shown) [8-cyclopropyl-3-(2-methyl-butyl)-6-thioxanthine]

- IC50 [2]: 1.67 µM
SMILES: CCCn1c(=S)c2[nH]c(C(C)C)nc2n(CCC)c1=O [8-isopropyl-1,3-dipropyl-6-thioxanthine, 1,3-Dipropyl-8-isopropyl-6-thioxanthine]

- IC50 [2]: 3.3 µM
SMILES: CCCn1c(=O)[nH]c(=S)c2[nH]c(C(C)C)nc21 [8-isopropyl-3-propyl-6-thioxanthine]

Second part, the compound before the results:

SMILES: Cc1nc2c([nH]1)c(=S)n(C)c(=O)n2C [1,3,8-trimethyl-6-thioxanthine]
- bronchial and coronary dilator activity [1]: having bronchial and coronary dilator activity

SMILES: CCn1c(=S)c2[nH]c(C(C)C)nc2n(CC)c1=O [1,3-diethyl-8-isopropyl-6-thioxanthine, 1,3-Diethyl-8-isopropyl-6-thioxanthine]
- IC50 [2]: 1.2 µM

SMILES: CCc1nc2c([nH]1)c(=S)n(C)c(=O)n2C [1,3-dimethyl-8-ethyl-6-thioxanthine]
- bronchial and coronary dilator activity [1]: having bronchial and coronary dilator activity

SMILES: CCn1c(=O)[nH]c(=S)c2[nH]c(C(C)C)nc21 [3-ethyl-8-isopropyl-6-thioxanthine]
- IC50 [2]: 4.6 µM

SMILES: CCCn1c(=S)c2[nH]c(C3CC3)nc2n(CCC)c1=O [8-Cyclopropyl-1,3-dipropyl-6-thioxanthine]
- IC50 [2]: 2.97 µM

SMILES: CCC(C)Cn1c(=O)n(CC)c(=S)c2[nH]c(C3CC3)nc21 (stereo not shown) [8-Cyclopropyl-1-ethyl-3-(2-methyl-butyl)-6-thioxanthine]
- IC50 [2]: 1.18 µM

SMILES: CCCn1c(=O)[nH]c(=S)c2[nH]c(C3CC3)nc21 [8-cyclopropyl-3-propyl-6-thioxanthine]
- IC50 [2]: 4.47 µM

SMILES: CCCCOc1cc(CC2CNC(=O)N2)ccc1OC (stereo not shown) [Ro-201724]
- inhibition of respiratory burst, chemotaxis and degranulation [3]: shown to inhibit
- inhibition of mediator synthesis/release [4]: shown to inhibit
- inhibition of mitogen-dependent growth and differentiation (lymphocytes): shown to inhibit

SMILES: COc1ccc(C2CNC(=O)C2)cc1OC1CCCC1 (stereo not shown) [Rolipram]
- PDE IV inhibition (PDE IV): selectively inhibit the PDE IV enzyme
- inhibition of respiratory burst, chemotaxis and degranulation [3]: shown to inhibit
- inhibition of mediator synthesis/release [4]: shown to inhibit
- inhibition of mitogen-dependent growth and differentiation (lymphocytes): shown to inhibit

SMILES: Cn1c(=O)c2[nH]cnc2n(C)c1=O [Theophylline]
- PDE IV inhibition (PDE IV): inhibits both PDE III and PDE IV
- therapeutic index [5]: narrow therapeutic index
- PDE III inhibition (PDE III): inhibits both PDE III and PDE IV
